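Five concentrations, 48 hours, 96-well plates. Abbreviation: GI50, concentration required for 50% inhibition of growth. Definition used: TGI = concentration required for complete inhibition of growth.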
Columns and labels:
Assay in all cases: NCI-60 cell line screen, 48 h
[1] = system: 786-0 renal
[2] = system: A498 renal
[3] = system: A549 NSCLC
[4] = system: ACHN renal
[5] = system: BT-549 breast
[6] = system: CAKI-1 renal
[7] = system: CCRF-CEM leukemia
[8] = system: COLO 205 colon
[9] = system: DU-145 prostate
[10] = system: EKVX NSCLC
[11] = system: HCC-2998 colon
[12] = system: HCT-116 colon
[13] = system: HCT-15 colon
[14] = system: HL-60(TB) leukemia
[15] = system: HOP-62 NSCLC
[16] = system: HOP-92 NSCLC
[17] = system: HS 578T breast
[18] = system: HT29 colon
[19] = system: IGROV1 ovarian
[20] = system: K-562 leukemia
[21] = system: KM12 colon
[22] = system: LOX IMVI melanoma
[23] = system: M14 melanoma
[24] = system: MALME-3M melanoma
[25] = system: MCF7 breast
[26] = system: MDA-MB-231 breast
[27] = system: MDA-MB-435
[28] = system: MOLT-4 leukemia
[29] = system: NCI-H226 lung
[30] = system: NCI-H23 lung
[31] = system: NCI-H460 lung
[32] = system: NCI-H522 lung
[33] = system: NCI/ADR-RES ovarian
[34] = system: OVCAR-3 ovarian
[35] = system: OVCAR-4 ovarian
[36] = system: OVCAR-5 ovarian
[37] = system: OVCAR-8 ovarian
[38] = system: PC-3 prostate
[39] = system: RPMI-8226 leukemia
[40] = system: SF-268 CNS
[41] = system: SF-295 CNS
[42] = system: SF-539 CNS
[43] = system: SK-MEL-2 melanoma
[44] = system: SK-MEL-28 melanoma
[45] = system: SK-MEL-5 melanoma
[46] = system: SK-OV-3 ovarian
[47] = system: SN12C renal
[48] = system: SNB-19 CNS
[49] = system: SNB-75 CNS
[50] = system: SR leukemia
[51] = system: SW-620 colon
[52] = system: T-47D breast
[53] = system: TK-10 renal
[54] = system: U251 CNS
[55] = system: UACC-257 melanoma
[56] = system: UACC-62 melanoma
[57] = system: UO-31 renal

In the case of `CN1CCN(c2ccc(Nc3nc(NCCCNS(=O)(=O)c4ccc(Cl)cc4)c4sccc4n3)cc2)CC1`, the GI50 [1] is reported as 2.12 µM, the TGI [1] is reported as 6.29 µM and the GI50 [2] is reported as 20.4 µM. It also gave a TGI [2] of 34.8 µM, a GI50 [3] of 18.7 µM and a TGI [3] of 61.7 µM. For the same molecule, the GI50 [4] was 11.2 µM, the TGI [4] was 23.2 µM and the GI50 [5] was 3.12 µM. It also gave a TGI [5] of 14.4 µM, a GI50 [6] of 15.5 µM and a TGI [6] of 28.8 µM. The GI50 [7] was 4.22 µM, the TGI [7] was greater than 100 µM and the GI50 [8] was 15.6 µM. For the same molecule, the TGI [8] was 37.8 µM, the GI50 [9] was 14 µM and the TGI [9] was 28.9 µM. The GI50 [10] was 14.1 µM, the TGI [10] was 30 µM and the GI50 [11] was 7.31 µM. For the same molecule, the TGI [11] was 20 µM, the GI50 [12] was 2.3 µM and the TGI [12] was 6.99 µM. The GI50 [13] was 3.08 µM, the TGI [13] was 12.4 µM and the GI50 [14] was 2.12 µM. The TGI [14] was 5.11 µM, the GI50 [15] was 19.6 µM and the TGI [15] was 37 µM. For the same molecule, the GI50 [16] was 2.16 µM, the TGI [16] was 16.2 µM and the GI50 [17] was 13.8 µM. For the same molecule, the TGI [17] was 44.7 µM, the GI50 [18] was 3.75 µM and the TGI [18] was 19.4 µM. The GI50 [19] was 10.7 µM, the TGI [19] was 22.8 µM and the GI50 [20] was 2.95 µM. The TGI [20] was greater than 100 µM, the GI50 [21] was 16.4 µM and the TGI [21] was 51.1 µM. The GI50 [22] was 1.69 µM, the TGI [22] was 3.48 µM and the GI50 [23] was 2 µM. For the same molecule, the TGI [23] was 3.94 µM, the GI50 [24] was 2.12 µM and the TGI [24] was 3.91 µM. The GI50 [25] was 6.47 µM, the TGI [25] was 21.1 µM and the GI50 [26] was 4.94 µM. The TGI [26] was 17.3 µM, the GI50 [27] was 9.17 µM and the TGI [27] was 21.2 µM. The GI50 [28] was 3.58 µM, the TGI [28] was 33.4 µM and the GI50 [29] was 12 µM. It also gave a TGI [29] of 24.9 µM, a GI50 [30] of 14.1 µM and a TGI [30] of 29.1 µM. For the same molecule, the GI50 [31] was 8.01 µM, the TGI [31] was 22 µM and the GI50 [32] was 11.8 µM. The TGI [32] was 27 µM, the GI50 [33] was 19.4 µM and the TGI [33] was 58.3 µM. The GI50 [34] was 6.81 µM, the TGI [34] was 35.9 µM and the GI50 [35] was 12.2 µM. The TGI [35] was 25.1 µM, the GI50 [36] was 13.3 µM and the TGI [36] was 27.4 µM. The GI50 [37] was 8.57 µM, the TGI [37] was 53.8 µM and the GI50 [38] was 9.62 µM. The TGI [38] was 26.4 µM, the GI50 [39] was 3.04 µM and the TGI [39] was 9.67 µM. For the same molecule, the GI50 [40] was 11.5 µM, the TGI [40] was 34.9 µM and the GI50 [41] was 12.2 µM. It also gave a TGI [41] of 27 µM, a GI50 [42] of 1.82 µM and a TGI [42] of 3.55 µM. It also gave a GI50 [43] of 17.2 µM, a TGI [43] of 33.1 µM and a GI50 [44] of 2.38 µM. For the same molecule, the TGI [44] was 6.22 µM, the GI50 [45] was 10.2 µM and the TGI [45] was 22 µM. It also gave a GI50 [46] of 29 µM, a TGI [46] of 60.9 µM and a GI50 [47] of 12.9 µM. The TGI [47] was 25.5 µM, the GI50 [48] was 10.6 µM and the TGI [48] was 22.4 µM. It also gave a GI50 [49] of 13.5 µM, a TGI [49] of 26.5 µM and a GI50 [50] of 2.83 µM. For the same molecule, the TGI [50] was greater than 100 µM, the GI50 [51] was 5.2 µM and the TGI [51] was 18.6 µM. The GI50 [52] was 22.1 µM, the TGI [52] was 54.1 µM and the GI50 [53] was 19.6 µM. It also gave a TGI [53] of 35.7 µM, a GI50 [54] of 4.06 µM and a TGI [54] of 23.2 µM. The GI50 [55] was 2.39 µM, the TGI [55] was 6.44 µM and the GI50 [56] was 3 µM. It also gave a TGI [56] of 11.1 µM, a GI50 [57] of 13 µM and a TGI [57] of 25.7 µM.
